Measurements published in ChEMBL document CHEMBL1153243, “Structure and property based design of factor Xa inhibitors: pyrrolidin-2-ones with monoaryl P4 motifs” (Bioorg Med Chem Lett, 2010).

Key:
Format in all cases: ADME, organism-based
[1] = Volume of distribution at steady state in Sprague-Dawley rat; settings: in vivo, read-out: Vdss
[2] = Plasma clearance in Sprague-Dawley rat
[3] = Half life in Sprague-Dawley rat; settings: in vivo
[4] = Oral bioavailability in Sprague-Dawley rat; settings: in vivo

Row | Compound | Vd [1] | clearance [2] | half-life [3] | bioavailability [4]
1 | CN[C@H](C)c1ccc(N2CC[C@H](NS(=O)(=O)c3ccc4cc(Cl)ccc4c3)C2=O)c(F)c1 | 2.4 L/kg | 1.6 mL/min/kg | 18 h | > 10%
2 | C[C@H](c1ccc(N2CC[C@H](NS(=O)(=O)c3ccc4cc(Cl)ccc4c3)C2=O)c(F)c1)N(C)C | 1.3 L/kg | 8 mL/min/kg | 2.6 h | 43%
3 | CN[C@@H](C)c1ccc(N2CC[C@H](NS(=O)(=O)c3ccc4cc(Cl)ccc4c3)C2=O)c(F)c1 | 3.3 L/kg | 3.1 mL/min/kg | 15 h | > 15%

More lines, now with the values ahead:

Row | Vd [1] | clearance [2] | half-life [3] | bioavailability [4] | Compound
4 | 0.66 L/kg | 7.5 mL/min/kg | 1.3 h | 54% | C[C@H](c1ccc(N2CC[C@H](NS(=O)(=O)/C=C/c3ccc(Cl)s3)C2=O)c(F)c1)N(C)C
5 | 1.8 L/kg | 13 mL/min/kg | 2.1 h | 81% | C[C@@H](c1ccc(N2CC[C@H](NS(=O)(=O)c3ccc4cc(Cl)ccc4c3)C2=O)c(F)c1)N(C)C
6 | 0.53 L/kg | 4.3 mL/min/kg | 1.6 h | 23% | C[C@@H](c1ccc(N2CC[C@H](NS(=O)(=O)/C=C/c3ccc(Cl)s3)C2=O)c(F)c1)N(C)C
7 | 0.52 L/kg | 2.1 mL/min/kg | 3.1 h | 10% | CC(c1ccc(N2CC[C@H](NS(=O)(=O)c3cc4ccc(Cl)cc4s3)C2=O)c(F)c1)N(C)C (stereo partly drawn)
